Experimental data as given in US11098029B2, “5-alkyl pyrrolidine orexin receptor agonists” (Merck Sharp & Dohme Corp., priority 2019, dated 2021).

Molecular target: human OX2R (Homo sapiens (Human), UniProt O43614)
Assay: IPOne (IP-One, Cisbio) orexin receptor agonist assay in CHO cells expressing human OX2R
Conditions: not given

Sequence of human OX2R (O43614 whole entry): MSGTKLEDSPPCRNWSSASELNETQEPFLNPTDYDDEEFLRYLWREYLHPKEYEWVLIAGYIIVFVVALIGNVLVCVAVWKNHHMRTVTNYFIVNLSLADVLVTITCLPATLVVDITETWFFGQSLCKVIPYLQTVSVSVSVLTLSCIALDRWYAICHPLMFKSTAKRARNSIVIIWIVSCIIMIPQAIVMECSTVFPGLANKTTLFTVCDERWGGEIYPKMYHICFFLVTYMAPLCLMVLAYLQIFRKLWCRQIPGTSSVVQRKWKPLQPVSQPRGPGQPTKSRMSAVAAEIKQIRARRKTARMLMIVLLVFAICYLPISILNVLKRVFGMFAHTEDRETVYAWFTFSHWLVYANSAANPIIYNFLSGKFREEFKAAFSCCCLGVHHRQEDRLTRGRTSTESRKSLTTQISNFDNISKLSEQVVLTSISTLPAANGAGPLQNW

SMILES | IC50 [nM]
COC(=O)N1[C@H](C)C[C@H](NS(C)(=O)=O)[C@@H]1COC1CCC(c2ccccc2)CC1C (stereo partly drawn) [Example 34, methyl (2R,3S,5R)-5-methyl-2-(((2-methyl-4-phenylcyclohexyl)oxy)methyl)-3-(methylsulfonamido)pyrrolidine-1-carboxylate] | 37.5
COC(=O)N1[C@H](C)C[C@H](NS(=O)(=O)N(C)C)[C@@H]1CO[C@@H]1CC=C(c2cccc(F)c2)CC1 [Example 35, methyl (2R,3S,5R)-3-((N,N-dimethylsulfamoyl)amino)-2-((((S)-3′-fluoro-2,3,4,5-tetrahydro-[1,1′-biphenyl]-4-yl)oxy)methyl)-5-methylpyrrolidine-1-carboxylate] | 12.5

Same assay, conditions: CHO, hOX2R_IP; percentage of mean max effect of a reference compound at 1 uM (100% activity vs Orexin A)

SMILES | Emax [%]
COC(=O)N1[C@H](C)C[C@H](NS(C)(=O)=O)[C@@H]1COC1CCC(c2ccccc2)CC1C (stereo partly drawn) [Example 34, methyl (2R,3S,5R)-5-methyl-2-(((2-methyl-4-phenylcyclohexyl)oxy)methyl)-3-(methylsulfonamido)pyrrolidine-1-carboxylate] | 99
COC(=O)N1[C@H](C)C[C@H](NS(=O)(=O)CF)[C@@H]1CO[C@H]1CC[C@@H](c2ccccc2)CC1 [Example 29, methyl (2R,3S,5R)-3-((fluoromethyl)sulfonamido)-5-methyl-2-((((1r,4R)-4-phenylcyclohexyl)oxy)meth-yl)pyrrolidine-1-carboxylate] | 102
CC(C)C1CCC(OC[C@H]2[C@@H](NS(=O)(=O)N(C)C)C[C@@H](C)N2C(=O)OCC(F)F)CC1 (stereo partly drawn) [Example 14, 2,2-difluoroethyl (2R,3S,5R)-3-((N,N-dimethylsulfamoyl)amino)-2-(((4-isopropylcyclohexyl)oxy)meth-yl)-5-methylpyrrolidine-1-carboxylate] | 100
CC(C)C1CCC(OC[C@H]2[C@@H](NS(C)(=O)=O)C[C@@H](C)N2C(=O)OCC(F)F)CC1 (stereo partly drawn) [Example 9, 2,2-difluoroethyl (2R,3S,5R)-2-(((4-isopropylcyclohexyl)oxy)meth-yl)-5-methyl-3-(methylsulfonamido)pyrrolidine-1-carboxylate] | 101
CC(C)OC(=O)N1[C@H](C)C[C@H](NS(=O)(=O)N(C)C)[C@@H]1COC1CCN(c2ncc(F)cn2)CC1 [Example 39, isopropyl (2R,3S,5R)-3-((N,N-dimethylsulfamoyl)amino)-2-(((1-(5-fluoropyrimidin-2-yl)piperidin-4-yl)oxy)methyl)-5-methylpyrrolidine-1-carboxylate] | 101
COC(=O)N1[C@H](C)C[C@H](NS(=O)(=O)N(C)C)[C@@H]1CO[C@@H]1CC=C(c2cccc(F)c2)CC1 [Example 35, methyl (2R,3S,5R)-3-((N,N-dimethylsulfamoyl)amino)-2-((((S)-3′-fluoro-2,3,4,5-tetrahydro-[1,1′-biphenyl]-4-yl)oxy)methyl)-5-methylpyrrolidine-1-carboxylate] | 102
CCc1ccccc1[C@H]1CC[C@H](OC[C@H]2[C@@H](NS(=O)(=O)N(C)C)C[C@@H](C)N2C(=O)OC)CC1 [Example 66, methyl (2R,3S,5R)-3-((N,N-dimethylsulfamoyl)amino)-2-((((1r,4R)-4-(2-ethylphenyl)cyclohexyl)oxy)methyl)-5-methylpyrrolidine-1-carboxylate] | 100
COC[C@@H]1C[C@H](NS(=O)(=O)N(C)C)[C@H](CO[C@H]2CC[C@@H](c3cccc(F)c3)CC2)N1C(=O)OC [Example 51, methyl (2R,3S,5S)-3-((N,N-dimethylsulfamoyl)amino)-2-((((CIS)-4-(3-fluorophenyl)cyclohexyl)-oxy)methyl)-5-(methoxymethyl)pyrrolidine-1-carboxylate] | 101
C[C@@H]1C[C@H](NS(=O)(=O)N(C)C)[C@H](CO[C@H]2CC[C@@H](c3cc(F)ccc3F)CC2)N1C(=O)OCC(F)F [Example 22, 2,2-difluoroethyl (2R,3S,5R)-2-((((1r,4R)-4-(2,5-difluorophenyl)-cyclohexyl)oxy)methyl)-3-((N,N-dimethylsulfamoyl)amino)-5-methylpyrrolidine-1-carboxylate] | 100
COC(=O)N1[C@H](C)C[C@H](NS(=O)(=O)N(C)C)[C@@H]1CO[C@@H]1CC[C@H](c2ccccc2)CC1F (stereo partly drawn) [Example 30, methyl (2R,3S,5R)-3-((N,N-dimethylsulfamoyl)amino)-2-((((1R,4S)-2-fluoro-4-phenylcyclohexyl)oxy)methyl)-5-methylpyrrolidine-1-carboxylate] | 100
CC[C@H]1C[C@@H](NS(C)(=O)=O)[C@@H](CO[C@H]2CC[C@@H](c3ccccc3)CC2)N1C(=O)OC [Example 45, methyl (2S,3R,5S)-5-ethyl-3-(methylsulfonamido)-2-((((CIS)-4-phenylcyclohexyl)oxy)methyl)-pyrrolidine-1-carboxylate] | 62
COC(=O)N1[C@H](C)C[C@H](NS(C)(=O)=O)[C@@H]1CO[C@H]1CC[C@@H](c2ccccc2C(F)(F)F)CC1 [Example 27, methyl (2R,3S,5R)-5-methyl-3-(methylsulfonamido)-2-((((1r,4R)-4-(2-(trifluorometh-yl)phenyl)cyclohexyl)oxy)methyl)pyrrolidine-1-carboxylate] | 100
CC(C)OC(=O)N1[C@H](C)C[C@H](NS(C)(=O)=O)[C@@H]1COC1CCC(C(C)C)CC1 (stereo partly drawn) [Example 5, isopropyl (2R,3S,5R)-2-(((4-isopropylcyclohexyl)oxy)meth-yl)-5-methyl-3-(methylsulfonamido)pyrrolidine-1-carboxylate] | 101
CCNC(=O)N1[C@H](C)C[C@H](NS(C)(=O)=O)[C@@H]1COC1CCC(C(F)(F)F)CC1 (stereo partly drawn) [Example 2, (2R,3S,5R)—N-ethyl-5-methyl-3-(methylsulfonamido)-2-(((4-(trifluoromethyl)-cyclohexyl)oxy)methyl)pyrrolidine-1-carboxamide] | 100
CCOC(=O)N1[C@H](C)C[C@H](NS(=O)(=O)N(C)C)[C@@H]1COC1CCC(C(C)C)CC1 (stereo partly drawn) [Example 8, ethyl (2R,3S,5R)-3-((N,N-dimethylsulfamoyl)amino)-2-(((4-isopropylcyclohexyl)oxy)meth-yl)-5-methylpyrrolidine-1-carboxylate] | 101

Same assay, conditions: hOX2R_IP; percentage of mean max effect of a reference compound at 1 uM (100% activity vs Orexin A)

SMILES | Emax (%)
C[C@@H]1C[C@H](NS(=O)(=O)N(C)C)[C@H](CO[C@H]2CC[C@@H](c3ccccc3)CC2)N1C(=O)OCC(F)F [Example 17, 2,2-difluoroethyl (2R,3S,5R)-3-((N,N-dimethylsulfamoyl)amino)-5-methyl-2-((((1s,4S)-4-phenylcyclohexyl)oxy)methyl)pyrrolidine-1-carboxylate] | 102
COC(=O)N1[C@H](C)C[C@H](NS(C)(=O)=O)[C@@H]1CO[C@H]1CC[C@H](c2ncccn2)CC1 [Example 69, Methyl (2R,3S,5R)-5-methyl-3-(methylsulfonamido)-2-((((1r,4R)-4-(pyrimidin-2-yl)cyclohexyl)oxy)methyl)pyrrolidine-1-carboxylate] | 98
CCC1CC(NS(C)(=O)=O)C(CO[C@H]2CC[C@@H](c3ccccc3)CC2)N1C(=O)OC (stereo partly drawn) [Example 40, methyl (CIS)-5-ethyl-3-(methylsulfonamido)-2-((((CIS)-4-phenylcyclohexyl)oxy)-methyl)pyrrolidine-1-carboxylate] | 100
CNS(=O)(=O)N[C@H]1C[C@@H](C)N(C(=O)OCC(F)F)[C@H]1COC1CCC(C(C)C)CC1 (stereo partly drawn) [Example 13, 2,2-difluoroethyl (2R,3S,5R)-2-(((4-isopropylcyclohexyl)oxy)meth-yl)-5-methyl-3-((N-methylsulfamoyl)amino)pyrro-lidine-1-carboxylate] | 101
CNS(=O)(=O)N[C@H]1C[C@@H](C)N(C(=O)OC(C)C)[C@H]1COC1CCC(C(C)C)CC1 (stereo partly drawn) [Example 6, isopropyl (2R,3S,5R)-2-(((4-isopropylcyclohexyl)oxy)meth-yl)-5-methyl-3-((N-methylsulfamoyl)amino) pyrrolidine-1-carboxylate] | 100
